Data as given in patent publication US9163021B2, “Pyrrolo[3,2-c]pyridine tropomyosin-related kinase inhibitors” (Pfizer Limited, priority 2012, dated 2015).

biological target: TRKA (Homo sapiens (Human), UniProt P04629); experiment: Isolated TRK enzyme assay (HTRF KinEASE-TK), PV3144 TrkA enzyme assay; assay type: biochemical; details: arithmetic mean where more than one reading
Procedure, shortened: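 His-tagged TrkA cytoplasmic domain preactivated with ATP 20 min, then with compound 20 min at room temperature before 1 µM final biotin-TK substrate; HTRF 665/620 nm read.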

Chain of TRKA (P04629 441-796): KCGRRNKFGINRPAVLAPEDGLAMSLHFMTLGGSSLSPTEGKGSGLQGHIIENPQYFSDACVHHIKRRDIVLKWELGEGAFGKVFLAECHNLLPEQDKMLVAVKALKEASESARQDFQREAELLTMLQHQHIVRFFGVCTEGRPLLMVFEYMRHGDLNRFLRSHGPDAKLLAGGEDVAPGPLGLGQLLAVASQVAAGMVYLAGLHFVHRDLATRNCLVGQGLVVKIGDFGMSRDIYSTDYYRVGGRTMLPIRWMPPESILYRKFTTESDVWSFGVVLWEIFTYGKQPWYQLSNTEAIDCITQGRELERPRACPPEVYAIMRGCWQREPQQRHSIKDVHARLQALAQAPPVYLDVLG

Structure (SMILES) | IC50
CC(CO)n1cc(C(=O)c2cncc(NC(=O)Cc3ccc(C#N)cc3)c2)c2cncc(F)c21 (single isomer, unassigned) [Example 217, 2-(4-cyanophenyl)-N-(5-{[7-fluoro-1-(1-hydroxypropan-2-yl)-1H-pyrrolo[3,2-c]pyridin-3-yl]carbonyl}pyridin-3-yl)acetamide] | 418 nM
CC(C)n1cc(C(=O)c2ccnc(NC(=O)Cn3nccn3)c2)c2cnccc21 [Example 190, N-(4-{[1-(propan-2-yl)-1H-pyrrolo[3,2-c]pyridin-3-yl]carbonyl}pyridin-2-yl)-2-(2H-1,2,3-triazol-2-yl)acetamide] | 775 nM
CC(C)n1cc(C(=O)c2ccnc(NC(=O)Cn3cccn3)c2)c2cnccc21 [Example 166, N-(4-{[1-(propan-2-yl)-1H-pyrrolo[3,2-c]pyridin-3-yl]carbonyl}pyridin-2-yl)-2-(1H-pyrazol-1-yl)acetamide] | 955 nM
CC(C)n1cc(CC(=O)Nc2cncc(C(=O)c3cn(C(C)C)c4ccncc34)c2)c(C(F)(F)F)n1 [Example 50, N-(5-{[1-(propan-2-yl)-1H-pyrrolo[3,2-c]pyridin-3-yl]carbonyl}pyridin-3-yl)-2-[1-(propan-2-yl)-3-(trifluoromethyl)-1H-pyrazol-4-yl]acetamide] | 133 nM
Cc1cc(CC(=O)Nc2cc(C(=O)c3cn(C(C)C)c4ccncc34)ccn2)[nH]n1 [Example 177, 2(3-methyl-1H-pyrazol-5-yl)-N-(4-{[1-(propan-2-yl)-1H-pyrrolo[3,2-c]pyridin-3-yl]carbonyl}pyridin-2-yl)acetamide] | 102 nM
O=C(Cc1coc(C2CC2)n1)Nc1cc(C(=O)c2cn(C3COC3)c3ccncc23)ccn1 [Example 197, 2-(2-cyclopropyl-1,3-oxazol-4-yl)-N-(4-{[1-(oxetan-3-yl)-1H-pyrrolo[3,2-c]pyridin-3-yl]carbonyl}pyridin-2-yl)acetamide] | 525 nM
Cc1ccnn1CC(=O)Nc1cc(C(=O)c2cn(CCO)c3ccncc23)ccn1 [Example 155, N-(4-{[1-(2-hydroxyethyl)-1H-pyrrolo[3,2-c]pyridin-3-yl]carbonyl}pyridin-2-yl)-2-(5-methyl-1H-pyrazol-1-yl)acetamide] | 2390 nM
Cc1nccn1CC(=O)Nc1cncc(C(=O)c2cn(C(C)C)c3ccncc23)c1 [Example 118, 2-(2-methyl-1H-imidazol-1-yl)-N-(5-{[1-(propan-2-yl)-1H-pyrrolo[3,2-c]pyridin-3-yl]carbonyl}pyridin-3-yl)acetamide] | 9150 nM
CC(C)n1cc(C(=O)c2ccnc(NC(=O)Cn3ccnc3)c2)c2cnccc21 [Example 102, 2-(1H-imidazol-1-yl)-N-(4-{[1-(propan-2-yl)-1H-pyrrolo[3,2-c]pyridin-3-yl]carbonyl}pyridin-2-yl)acetamide] | 7450 nM
CC(C)n1cc(C(=O)c2cncc(NC(=O)Cn3cc(C(F)(F)F)nn3)c2)c2cnccc21 [Example 38, N-(5-{[1-(propan-2-yl)-1H-pyrrolo[3,2-c]pyridin-3-yl]carbonyl}pyridin-3-yl)-2[4-(trifluoromethyl)-1H-1,2,3-triazol-1-yl]acetamide] | 147 nM
CC(C)c1cn(CC(=O)Nc2cc(C(=O)c3cn(CCO)c4ccncc34)ccn2)nn1 [Example 159, N-(4-{[1-(2-hydroxyethyl)-1H-pyrrolo[3,2-c]pyridin-3-yl]carbonyl}pyridin-2-yl)-2-[4-(propan-2-yl)-1H-1,2,3-triazol-1-yl]acetamide] | 271 nM
CC(CO)n1cc(C(=O)c2cncc(NC(=O)Cc3ccc(C(F)(F)F)cc3)c2)c2cncc(F)c21 (single isomer, unassigned) [Example 224, N-(5-{[7-fluoro-1-(1-hydroxypropan-2-yl)-1H-pyrrolo[3,2-c]pyridin-3-yl]carbonyl}pyridin-3-yl)-2-[4-(trifluoromethyl)phenyl]acetamide] | 15.4 nM
CC(CO)n1cc(C(=O)c2cc(NC(=O)Cc3ccc(C(F)(F)F)cc3)ccn2)c2cnccc21 (stereo not shown) [Example 230, N-(2-{[1-(1-hydroxypropan-2-yl)-1H-pyrrolo[3,2-c]pyridin-3-yl]carbonyl}pyridin-4-yl)-2-[4-(trifluoromethyl)phenyl]acetamide] | 18.1 nM
CC(C)n1cc(C(=O)c2cc(NC(=O)Cc3cn(C4CC4)nc3C(F)(F)F)ccn2)c2cnccc21 [Example 57] | 1680 nM

Further compounds by falling IC50, results first:

IC50 | Structure (SMILES)
87.1 nM | Cc1ccn(CC(=O)Nc2cc(C(=O)c3cn(C(C)C)c4ccncc34)ccn2)n1 [Example 109, 2-(3-methyl-1H-pyrazol-1-yl)-N-(4-{[1-(propan-2-yl)-1H-pyrrolo[3,2-c]pyridin-3-yl]carbonyl}pyridin-2-yl)acetamide]
68.2 nM | CC(C)n1cc(C(=O)c2cncc(NC(=O)Cn3cc(C4CC4)nn3)c2)c2cnccc21 [Example 51, 2-(4-cyclopropyl-1H-1,2,3-triazol-1-yl)-N-(5-{[1-(propan-2-yl)-1H-pyrrolo[3,2-c]pyridin-3-yl]carbonyl}pyridin-3-yl)acetamide]
65.6 nM | CC(C)c1cn(CC(=O)Nc2cncc(C(=O)c3cn(C(C)CO)c4ccncc34)c2)nn1 (single isomer, unassigned) [Example 70, N-(5-{[1-(1-hydroxypropan-2-yl)-1H-pyrrolo[3,2-c]pyridin-3-yl]carbonyl}pyridin-3-yl)-2-[4-(propan-2-yl)-1H-1,2,3-triazol-1-yl]acetamide]
62 nM | CC(CO)n1cc(C(=O)c2cncc(NC(=O)Cn3ccc(C4CC4)n3)c2)c2cncc(F)c21 (single isomer, unassigned) [Example 215, 2-(3-cyclopropyl-1H-pyrazol-1-yl)-N-(5-{[7-fluoro-1-(1-hydroxypropan-2-yl)-1H-pyrrolo[3,2-c]pyridin-3-yl]carbonyl}pyridin-3-yl)acetamide]
56 nM | Cc1nc(CC(=O)Nc2cc(C(=O)c3cn(C(C)C)c4ccncc34)ccn2)c(C)s1 [Example 162, 2-(2,5-dimethyl-1,3-thiazol-4-yl)-N-(4-{[1-(propan-2-yl)-1H-pyrrolo[3,2-c]pyridin-3-yl]carbonyl}pyridin-2-yl)acetamide]
46.3 nM | CC(CO)n1cc(C(=O)c2cncc(NC(=O)Cc3ccc(Cl)cn3)c2)c2cncc(F)c21 (single isomer, unassigned) [Example 225, 2-(5-chloropyridin-2-yl)-N-(5-{[7-fluoro-1-(1-hydroxypropan-2-yl)-1H-pyrrolo[3,2-c]pyridin-3-yl]carbonyl}pyridin-3-yl)acetamide]
45.3 nM | CC(C)n1cc(C(=O)c2ccnc(NC(=O)Cc3ccc(C#N)cn3)c2)c2cnccc21 [Example 138, 2(5-cyanopyridin-2-yl)-N-(4-{[1-(propan-2-yl)-1H-pyrrolo[3,2-c]pyridin-3-yl]carbonyl}pyridin-2-yl)acetamide]
44.9 nM | CC(CO)n1cc(C(=O)c2cncc(NC(=O)Cn3ccc(C(F)(F)F)n3)c2)c2cnccc21 (stereo not shown) [Example 75, N-(5-{[1-(1-hydroxypropan-2-yl)-1H-pyrrolo[3,2-c]pyridin-3-yl]carbonyl}pyridin-3-yl)-2-[3-(trifluoromethyl)-1H-pyrazol-1-yl]acetamide]
39.5 nM | Cc1cc(C(C)C)nn1CC(=O)Nc1cncc(C(=O)c2cn(C(C)C)c3ccncc23)c1 [Example 120, 2-(5-methyl-3-(propan-2-yl)-1H-pyrazol-1-yl]-N-(5-{[1-(propan-2-yl)-1H-pyrrolo[3,2-c]pyridin-3-yl]carbonyl}pyridin-3-yl)acetamide]
37 nM | CC(CO)n1cc(C(=O)c2cncc(NC(=O)Cc3ccc(C(F)(F)F)cc3)c2)c2cnccc21 (single isomer, unassigned) [Example 65, N-(5-{[1-(1-hydroxypropan-2-yl)-1H-pyrrolo[3,2-c]pyridin-3-yl]carbonyl}pyridin-3-yl)-2-[4-(trifluoromethyl)phenyl]acetamide]
26.1 nM | CC(C)n1cc(C(=O)c2ccnc(NC(=O)Cc3nc(C4CC4)oc3C3CC3)c2)c2cnccc21 [Example 79, 2-(2,5-dicyclopropyl-1,3-oxazol-4-yl)-N-(4-{[1-(propan-2-yl)-1H-pyrrolo[3,2-c]pyridin-3-yl]carbonyl}pyridin-2-yl)acetamide]
24 nM | CC(C)(CO)n1cc(C(=O)c2cncc(NC(=O)Cn3cc(C4CC4)nn3)c2)c2cncc(F)c21 [Example 240, 2-(4-cyclopropyl-1H-1,2,3-triazol-1-yl)-N-(5-{[7-fluoro-1-(1-hydroxy-2-methylpropan-2-yl)-1H-pyrrolo[3,2-c]pyridin-3-yl]carbonyl}pyridin-3-yl)acetamide]
20.4 nM | Cc1cc(C(C)C)nn1CC(=O)Nc1cc(C(=O)c2cn(C(C)C)c3ccncc23)ccn1 [Example 113, 2-[5-methyl-3-(propan-2-yl)-1H-pyrazol-1-yl]-N-(4-{[1-(propan-2-yl)-1H-pyrrolo[3,2-c]pyridin-3-yl]carbonyl}pyridin-2-yl)acetamide]
15 nM | CC(C)n1cc(C(=O)c2cncc(NC(=O)Cn3cc(C4CC4)cn3)c2)c2cncc(F)c21 [Example 91, 2-(4-cyclopropyl-1H-pyrazol-1-yl)-N-(5-{[7-fluoro-1-(propan-2-yl)-1H-pyrrolo[3,2-c]pyridin-3-yl]carbonyl}pyridin-3-yl)acetamide]
12.8 nM | CC(C)(CO)n1cc(C(=O)c2cc(NC(=O)Cc3ccc(C(F)(F)F)cc3)ccn2)c2cnccc21 [Example 231, N-(2-{[1-(1-hydroxy-2-methylpropan-2-yl)-1H-pyrrolo[3,2-c]pyridin-3-yl]carbonyl}pyridin-4-yl)-2-[4-(trifluoromethyl)phenyl]acetamide]
7.41 nM | CC(C)n1cc(C(=O)c2ccnc(NC(=O)Cc3cccc(OC(F)(F)F)c3)c2)c2cnccc21 [Example 191, N-(4-{[1-(propan-2-yl)-1H-pyrrolo[3,2-c]pyridin-3-yl]carbonyl}pyridin-2-yl)-2-[3-(trifluoromethoxy)phenyl]acetamide]
5.3 nM | CC(C)n1cc(C(=O)c2ccnc(NC(=O)Cc3ccc(C(F)(F)F)cc3)c2)c2cnccc21 [Example 175, N-(4-{[1-(propan-2-yl)-1H-pyrrolo[3,2-c]pyridin-3-yl]carbonyl}pyridin-2-yl)-2-[4-(trifluoromethyl)phenyl]acetamide]
